ChEMBL document CHEMBL4834424, “Targeting Chikungunya Virus Replication by Benzoannulene Inhibitors” (J Med Chem, 2021)
The source made the active and inactive calls. The rule behind the calls is not given here.

Experiments:
[1] = AUC in C57BL/6 mouse at 40 mg/kg, ip; format: ADME, organism-based; design: dose 40 mg/kg; details: in vivo
[2] = Half life in C57BL/6 mouse at 40 mg/kg, ip; format: ADME, organism-based; details: in vivo
Chikungunya virus [3] = assay: (§1) Antiviral activity against CHIKV 99659 infected in Asian tiger mosquito C6/36 cells assessed as reduction in virus titer in cell supernatant by measuring inhibition of plaque formation using Vero cells and measured following infection of supernatants with Vero cells for 48 hrs pi by serial dilution plaque based methylene blue dye analysis; format: functional; details: Chikungunya virus, 99659, C6
[4] = Cmax in C57BL/6 mouse at 40 mg/kg, sc; format: ADME, organism-based; design: route subcutaneous, dose 40 mg/kg; details: in vivo
[5] = AUC in C57BL/6 mouse at 1 mg/kg, iv; format: ADME, organism-based; design: dose 1 mg/kg; details: in vivo
[6] = Cytotoxicity against human NHDF cells assessed as cell viability measured after 24 hrs by Cell Titer Glo luminescent assay; format: cell-based; details: NHDF cells
[7] = Aqueous solubility of the compound; format: physicochemical; details: aqueous; read-out: solubility
Chikungunya virus [8] = assay: (§2) Antiviral activity against CHIKV infected in human NHDF cells assessed as reduction in virus titer in cell supernatant by measuring inhibition of plaque formation using Vero cells at 10 uM pretreated with NHDF cells followed by infected with virus incubated for 24 hrs and measured following infection of supernatants with Vero cells for 48 hrs by plaque based methylene blue dye analysis; format: functional; details: time 72 hrs
Chikungunya virus [9] = assay: Antiviral activity against CHIKV-nLuc RNA transfected NHDF cells assessed as decrease in Nano-luc signal at 20 uM pretreated 24 hrs before transfection in presence of uridine measured after 24 hrs by Nano-Glo luciferase assay; format: functional, organism-based; details: time 48.0 hrs
Chikungunya virus [10] = assay: Antiviral activity against CHIKV-nLuc RNA transfected NHDF cells assessed as decrease in Nano-luc signal at 20 uM pretreated 24 hrs before transfection in presence of guanosine measured after 24 hrs by Nano-Glo luciferase assay; format: functional, organism-based
[11] = Cmax in C57BL/6 mouse at 40 mg/kg, po; format: ADME, organism-based; design: route oral, dose 40 mg/kg; details: in vivo
[12] = Half life in C57BL/6 mouse at 40 mg/kg, po; format: ADME, organism-based; details: in vivo
[13] = AUC in C57BL/6 mouse at 40 mg/kg, po; format: ADME, organism-based; design: dose 40 mg/kg; details: in vivo
[14] = tested on: Venezuelan equine encephalitis virus; assay: as §1, with “Venezuelan equine encephalitis virus TC83” for “CHIKV 99659”; format: functional
[15] = AUC in C57BL/6 mouse at 40 mg/kg, sc; format: ADME, organism-based; design: dose 40 mg/kg; details: in vivo
[16] = Metabolic stability in human liver microsomes assessed as half life in presence of NADPH incubated up to 45 mins by LC-MS/MS analysis; format: ADME, Microsome
[17] = Toxicity in CHIKV infected in C57BL/6 mouse right foot assessed as body weight change at 80 mg/kg, po pretreated 2 hrs before infection followed treated twice a day for 3 days and measured 12 hr post infection of last dose; format: organism-based; details: in vivo, 86 h
[18] = Oral bioavailability in C57BL/6 mouse at 40 mg/kg; format: ADME, organism-based; details: in vivo
[19] = Half life in C57BL/6 mouse at 40 mg/kg, sc; format: ADME, organism-based; details: in vivo
[20] = target: Dihydroorotate dehydrogenase (quinone), mitochondrial (Homo sapiens, UniProt Q02127)
Chikungunya virus [21] = assay: Antiviral activity against CHIKV infected in C57BL/6 mouse right foot assessed as reduction in serum of contralateral ankles tissue at 80 mg/kg, po pretreated 2 hrs before infection followed treated twice a day for 3 days and measured 12 hr post infection of last dose by dilution plaque assay on Vero cells; format: functional, organism-based; details: time 86.0 hrs
dengue virus type 2 = assay: as §1, with “DENV2” for “CHIKV 99659”, “HEK293” for “Asian tiger mosquito C6/36”, “at 10 uM” for “and”; format: functional
[22] = as §1, with “Ross river virus” for “CHIKV 99659”; format: functional; details: La Crosse virus
Chikungunya virus [23] = assay: Antiviral activity against CHIKV infected in C57BL/6 mouse right foot assessed as reduction in spleen at 80 mg/kg, po pretreated 2 hrs before infection followed treated twice a day for 3 days and measured 12 hr post infection of last dose by dilution plaque assay on Vero cells; format: functional, organism-based; details: time 86.0 hrs
Onyong-nyong virus = assay: as §1, with “O'nyong-nyong virus” for “CHIKV 99659”; format: functional
West Nile virus = assay: as §1, with “West nile virus” for “CHIKV 99659”, “HEK293” for “Asian tiger mosquito C6/36”, “at 10 uM” for “and”; format: functional
[24] = Half life in C57BL/6 mouse at 1 mg/kg, iv; format: ADME, organism-based; details: in vivo
Chikungunya virus [25] = assay: Antiviral activity against CHIKV infected in C57BL/6 mouse right foot assessed as reduction in serum of ipsilateral tissue at 80 mg/kg, po pretreated 2 hrs before infection followed treated twice a day for 3 days and measured 12 hr post infection of last dose by dilution plaque assay on Vero cells; format: functional, organism-based; details: time 86.0 hrs
Chikungunya virus [26] = format: functional; details: 181-25, C6, time 48 hrs
Mayaro virus = assay: as §1, with “Mayaro virus TRVL” for “CHIKV 99659”; format: functional
[27] = Octanol-aqueous buffer distribution coefficient, log D of the compound by LC-MS analysis; format: physicochemical
Chikungunya virus [28] = assay: as §2, with “cells” for “cells at 10 uM”; format: functional, organism-based
[29] = tested on: Venezuelan equine encephalitis virus; assay: Antiviral activity against Venezuelan equine encephalitis virus TC83 infected in human […] cells assessed as reduction in virus titer in cell supernatant by measuring inhibition of plaque formation using Vero cells at 10 uM measured following infection of supernatants with Vero cells for 48 hrs pi by serial dilution plaque based methylene blue dye analysis; format: functional, NHDF
Chikungunya virus [30] = assay: as §1, with “37997” for “99659”; format: functional; details: Chikungunya virus, 37997, C6
[31] = Bioavailability in C57BL/6 mouse at 40 mg/kg, sc; format: ADME, organism-based; details: in vivo
Chikungunya virus [32] = assay: Antiviral activity against CHIKV infected in C57BL/6 mouse right foot assessed as reduction in quadriceps tissue at 80 mg/kg, po pretreated 2 hrs before infection followed treated twice a day for 3 days and measured 12 hr post infection of last dose by dilution plaque assay on Vero cells; format: functional, organism-based; details: time 86.0 hrs
Chikungunya virus [33] = assay: Antiviral activity against CHIKV infected in C57BL/6 mouse right foot assessed as reduction in site of infection at 80 mg/kg, po pretreated 2 hrs before infection followed treated twice a day for 3 days and measured 12 hr post infection of last dose by dilution plaque assay on Vero cells; format: functional, organism-based; details: time 86.0 hrs
[34] = Bioavailability in C57BL/6 mouse at 40 mg/kg, ip; format: ADME, organism-based; details: in vivo
[35] = Cmax in C57BL/6 mouse at 40 mg/kg, ip; format: ADME, organism-based; design: route intraperitoneal, dose 40 mg/kg; details: in vivo
Una virus = assay: as §1, with “Una virus MAC150” for “CHIKV 99659”; format: functional
[36] = Cytotoxicity against HEK293 cells at 10 uM; format: cell-based; details: human

Dihydroorotate dehydrogenase (quinone), mitochondrial, sequence (Q02127 whole entry): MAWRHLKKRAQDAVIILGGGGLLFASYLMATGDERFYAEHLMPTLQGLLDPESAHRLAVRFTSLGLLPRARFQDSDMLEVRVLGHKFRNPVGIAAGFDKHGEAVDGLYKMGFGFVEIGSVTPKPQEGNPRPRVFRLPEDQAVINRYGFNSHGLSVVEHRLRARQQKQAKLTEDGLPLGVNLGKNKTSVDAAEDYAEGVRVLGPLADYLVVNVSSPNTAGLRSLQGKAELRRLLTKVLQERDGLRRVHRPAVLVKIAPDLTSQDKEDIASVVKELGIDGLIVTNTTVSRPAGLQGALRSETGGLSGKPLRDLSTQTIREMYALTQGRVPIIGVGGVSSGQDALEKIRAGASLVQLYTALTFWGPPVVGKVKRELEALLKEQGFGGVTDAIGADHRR

COc1cc2c(cc1C(=O)Nc1ccc(C(C)(C)C#N)cc1)CCCCC2
AUC [1]: 8570 ng·h/mL | half-life [2]: 18.5 h | EC90 (Chikungunya virus [3]): 1100 nM | Cmax [4]: 90 ng/mL | AUC [5]: 497 ng·h/mL | CC50 at 24 h [6]: > 30000 nM | solubility [7]: < 1 µM | log(activity) (Chikungunya virus [8]): 4.5 | Activity (Chikungunya virus [9]): inactive | Activity (Chikungunya virus [10]): Active | Cmax [11]: 642 ng/mL | half-life [12]: 9.9 h | AUC [13]: 7950 ng·h/mL | EC90 [14]: 2100 nM | AUC [15]: 744 ng·h/mL | half-life [16]: 132 h | Activity [17]: Non-Toxic | bioavailability [18]: 41% | half-life [19]: 18.6 h | IC50 [20]: 310 nM | Activity (Chikungunya virus [21]): inactive | log(activity) (dengue virus type 2): 2 | EC90 [22]: 850 nM | Activity (Chikungunya virus [23]): Active | EC90 (Onyong-nyong virus): 890 nM | log(activity) (West Nile virus): 3.4 | half-life [24]: 2.02 h | Activity (Chikungunya virus [25]): inactive | EC90 (Chikungunya virus [26]): 980 nM | EC90 (Mayaro virus): 2300 nM | logD [27]: > 4.4 | EC50 (Chikungunya virus [28]): 270 nM | log(activity) [29]: 3.1 | EC90 (Chikungunya virus [30]): 1500 nM | bioavailability [31]: 4% | Activity (Chikungunya virus [32]): Active | Activity (Chikungunya virus [33]): inactive | bioavailability [34]: 43% | Cmax [35]: 858 ng/mL | EC90 (Una virus): 2500 nM | CC50 [36]: > 30000 nM
